≈ marks a conversion by molar mass, not a printed value.
Tests used:
[1] = system: Radical scavenging activity; test: Antioxidant activity assessed as DPPH free radical scavenging activity at 200 ug/ml after 30 min relative to control; type: functional
[2] = system: Radical scavenging activity; test: Antioxidant activity assessed as DPPH free radical scavenging activity at 100 ug/ml after 30 min relative to control; type: functional
[3] = system: Radical scavenging activity; test: Antioxidant activity assessed as DPPH free radical scavenging activity at 150 ug/ml after 30 min relative to control; type: functional
[4] = system: Radical scavenging activity; test: Antioxidant activity assessed as DPPH free radical scavenging activity after 30 min; type: functional
[5] = system: Rattus norvegicus; test: Anticonvulsant activity in Rattus norvegicus Wistar (rat) assessed as protection against maximal electroshock-induced seizure at 100 mg/kg, po administered 30 min before electroshock measured for 2 min relative to control; type: functional
[6] = system: Rattus norvegicus; test: Neurotoxicity in Rattus norvegicus Wistar (rat) assessed as minimal motor impairment at 100 mg/kg, po after 2 hr by rotorod test relative to control; type: toxicity, organism-based; parameters: dose 100 mg/kg, route oral; settings: in vivo
[7] = system: Rattus norvegicus; test: Neurotoxicity in Rattus norvegicus Wistar (rat) assessed as minimal motor impairment at 100 mg/kg, po after 1 hr by rotorod test; type: toxicity, organism-based; parameters: dose 100 mg/kg, route oral; settings: in vivo
[8] = system: Rattus norvegicus; test: Neurotoxicity in Rattus norvegicus Wistar (rat) assessed as minimal motor impairment at 100 mg/kg, po after 0.5 hr by rotorod test; type: toxicity, organism-based; parameters: dose 100 mg/kg, route oral; settings: in vivo
[9] = system: Rattus norvegicus; test: Neurotoxicity in Rattus norvegicus Wistar (rat) assessed as minimal motor impairment at 100 mg/kg, po after 2 hr by rotorod test; type: toxicity, organism-based; parameters: dose 100 mg/kg, route oral; settings: in vivo
[10] = system: Rattus norvegicus; test: Neurotoxicity in Rattus norvegicus Wistar (rat) assessed as minimal motor impairment at 100 mg/kg, po after 4 hr by rotorod test; type: toxicity, organism-based; parameters: dose 100 mg/kg, route oral; settings: in vivo

Structure (SMILES)	Activity [1]	Activity [2]	Activity [3]	IC50 [4]	Activity [5]	Activity [6]	Activity [7]	Activity [8]	Activity [9]	Activity [10]
O=C(O)CC1(C/N=C/c2ccccn2)CCCCC1	59.7%	40%	50.3%	151.2 µg/mL (≈ 581 µM)	–	–	–	–	–	–
COc1ccc(/C=N/CC2(CC(=O)O)CCCCC2)cc1	69.5%	49.6%	59.8%	94.2 µg/mL (≈ 326 µM)	–	–	–	–	–	–
C/C(=N\CC1(CC(=O)O)CCCCC1)c1ccc2ccccc2c1	48.4%	28.5%	37.2%	Not Active	0.42%	25%	Non-toxic	Non-toxic	–	–
C/C(=N\CC1(CC(=O)O)CCCCC1)c1c[nH]c2ccccc12	55.8%	32.7%	43.8%	175 µg/mL (≈ 560 µM)	24.63%	25%	Non-toxic	Non-toxic	Non-toxic	–
O=C(O)CC1(C/N=C/c2c(F)cccc2Cl)CCCCC1	69.1%	47.2%	58%	104 µg/mL (≈ 334 µM)	–	–	–	–	–	–
O=C(O)CC1(C/N=C/c2ccccc2O)CCCCC1	71.3%	51%	60.6%	80.5 µg/mL (≈ 292 µM)	–	–	–	–	–	–
C/C(=N\CC1(CC(=O)O)CCCCC1)c1ccccn1	51.6%	31.1%	42.5%	194.8 µg/mL (≈ 710 µM)	66.45%	–	Non-toxic	Non-toxic	Non-toxic	Non-toxic
O=C1O[C@H]([C@@H](O)CO)C(O)=C1O [ASCORBIC ACID]	99.3%	74.1%	86.4%	8.6 µg/mL (≈ 48.8 µM)	–	–	–	–	–	–
O=C(O)CC1(C/N=C/c2ccccc2Cl)CCCCC1	66.4%	45.1%	56.7%	119.4 µg/mL (≈ 406 µM)	–	–	–	–	–	–
O=C1NC(=O)C(c2ccccc2)(c2ccccc2)N1 [PHENYTOIN]	–	–	–	–	79.29%	–	–	Non-toxic	–	–
CCOc1ccc(/C(C)=N/CC2(CC(=O)O)CCCCC2)cc1	74.6%	55.8%	66.7%	60.3 µg/mL (≈ 190 µM)	12.74%	25%	Non-toxic	Non-toxic	–	–
C/C=N/CC1(CC(=O)O)CCCCC1	49.5%	31.4%	41%	Not Active	–	–	–	–	–	–
O=C(O)CC1(C/N=C/c2ccccc2)CCCCC1	49.8%	30.1%	41.3%	Not Active	–	–	–	–	–	–
CCOc1ccc(/C=N/CC2(CC(=O)O)CCCCC2)cc1	74.5%	55.6%	66.4%	60.5 µg/mL (≈ 199 µM)	–	–	–	–	–	–
C=NCC1(CC(=O)O)CCCCC1	48.9%	30.2%	40.6%	Not Active	–	–	–	–	–	–
C/C(=N\CC1(CC(=O)O)CCCCC1)c1cccnc1	51%	30.8%	42.1%	198.2 µg/mL (≈ 722 µM)	65.61%	–	Non-toxic	Non-toxic	Non-toxic	Non-toxic
O=C(O)CC1(C/N=C/c2ccc(F)cc2)CCCCC1	62.8%	44.7%	53.8%	130.5 µg/mL (≈ 471 µM)	–	–	–	–	–	–
C/C(=N\CC1(CC(=O)O)CCCCC1)c1cccc(C#N)c1	49.8%	30.6%	41%	Not Active	6.36%	25%	Non-toxic	Non-toxic	–	–
COc1cc(/C=N/CC2(CC(=O)O)CCCCC2)ccc1O	78.2%	57.2%	64.9%	59.6 µg/mL (≈ 195 µM)	–	–	–	–	–	–
